Measured values: patent EP4722212A1, “NOVEL COMPOUND FOR INHIBITING PROTEIN KINASES AND PHARMACEUTICAL COMPOSITION COMPRISING SAME” (Magicbullettherapeutics Co., Ltd., priority 2023, dated 2024)

How the values were obtained:
[1] = test system: SKOV3; assay: Cell line inhibition analysis (CCK-8, 72 h); type: cell-based; details: Homo sapiens, SK-OV-3; read-out: Cell growth inhibition GI50 SKOV3
Description: (§1) C4-2B and 22Rv1 cells were purchased from ATCC and cultured according to the manufacturer's instructions. The cells were seeded in 96-well plates at 7×10^3cells/100 µl/well and allowed to attach for one day. After removing the culture medium, 90 µl/well of fresh culture medium was added, followed by addition of 10 µl/well of culture medium containing compounds at nine concentrations (0.076-500 µM) serially diluted 3-fold and DMSO control to achieve final concentrations of 0-50 µM, and then cultured for 72 hours in a 37 °C CO2 incubator. Cell proliferation after 72 hours was assessed by adding 10 µl/well of CCK-8 solution, orbital shaking for 30 seconds, then incubating at 37 °C CO2 incubator for 2 hours and measuring absorbance at 450 nm using a microplate reader. The measured absorbance values were corrected by subtracting the absorbance of wells containing only culture medium and CCK-8 solution, and GI50 values were calculated using GraphPad Prism 8 software.
(§2) Meanwhile, in a separate 96-well plate, cells were seeded at 7 × 10^3 cells/100 µl/well, allowed to attach for one day, CCK-8 solution was added, and absorbance was measured to establish the 'Growth (%) = 0' value.
(§3) Furthermore, experiments were conducted on A172, A549, HCI-H460, AsPC-1, MIA-Paca-2, DLD-1, HCT-116, HT-29, SW480, SW620, MDA-MB-231, and SKOV3 cell lines using the same method, with results shown in Tables 9 and 10 below [* <1 µM: A, <5 µM: B, <10 µM: C, >10 µM: D].

[2] = test system: AsPC-1; assay: Cell line inhibition analysis (CCK-8, 72 h); type: cell-based; details: Homo sapiens, ASPC1; read-out: Cell growth inhibition GI50 AsPC-1
Description: as §1, §2, §3

[3] = test system: MIA-Paca-2; assay: Cell line inhibition analysis (CCK-8, 72 h); type: cell-based; details: Homo sapiens, read-out: Cell growth inhibition GI50 MIA-Paca-2
Description: as §1, §2, §3

[4] = test system: A549; assay: Cell line inhibition analysis (CCK-8, 72 h); type: cell-based; details: Homo sapiens, read-out: Cell growth inhibition GI50 A549
Description: as §1, §2, §3

[5] = test system: A172; assay: Cell line inhibition analysis (CCK-8, 72 h); type: cell-based; details: Homo sapiens, A 172; read-out: Cell growth inhibition GI50 A172
Description: as §1, §2, §3

[6] = test system: MDA-MB-231; assay: Cell line inhibition analysis (CCK-8, 72 h); type: cell-based; details: Homo sapiens, read-out: Cell growth inhibition GI50 MDA-MB-231
Description: as §1, §2, §3

[7] = test system: HCT-116; assay: Cell line inhibition analysis (CCK-8, 72 h); type: cell-based; details: Homo sapiens, read-out: Cell growth inhibition GI50 HCT-116
Description: as §1, §2, §3

[8] = test system: HCI-H460; assay: Cell line inhibition analysis (CCK-8, 72 h); type: cell-based; details: read-out: Cell growth inhibition GI50 HCI-H460
Description: as §1, §2, §3

[9] = test system: DLD-1; assay: Cell line inhibition analysis (CCK-8, 72 h); type: cell-based; details: Homo sapiens, read-out: Cell growth inhibition GI50 DLD-1
Description: as §1, §2, §3

[10] = test system: SW480; assay: Cell line inhibition analysis (CCK-8, 72 h); type: cell-based; details: Homo sapiens, read-out: Cell growth inhibition GI50 SW480
Description: as §1, §2, §3

[11] = test system: HT-29; assay: Cell line inhibition analysis (CCK-8, 72 h); type: cell-based; details: Homo sapiens, read-out: Cell growth inhibition GI50 HT-29
Description: as §1, §2, §3

[12] = test system: SW620; assay: Cell line inhibition analysis (CCK-8, 72 h); type: cell-based; details: Homo sapiens, SW-620; read-out: Cell growth inhibition GI50 SW620
Description: as §1, §2, §3

[13] = target: T1, BMX (Homo sapiens, UniProt P51813); assay: Enzyme activity inhibition (Reaction Biology); type: biochemical
T1 construct: purchased Reaction Biology (RBC)
T1 sequence (P51813 1-675): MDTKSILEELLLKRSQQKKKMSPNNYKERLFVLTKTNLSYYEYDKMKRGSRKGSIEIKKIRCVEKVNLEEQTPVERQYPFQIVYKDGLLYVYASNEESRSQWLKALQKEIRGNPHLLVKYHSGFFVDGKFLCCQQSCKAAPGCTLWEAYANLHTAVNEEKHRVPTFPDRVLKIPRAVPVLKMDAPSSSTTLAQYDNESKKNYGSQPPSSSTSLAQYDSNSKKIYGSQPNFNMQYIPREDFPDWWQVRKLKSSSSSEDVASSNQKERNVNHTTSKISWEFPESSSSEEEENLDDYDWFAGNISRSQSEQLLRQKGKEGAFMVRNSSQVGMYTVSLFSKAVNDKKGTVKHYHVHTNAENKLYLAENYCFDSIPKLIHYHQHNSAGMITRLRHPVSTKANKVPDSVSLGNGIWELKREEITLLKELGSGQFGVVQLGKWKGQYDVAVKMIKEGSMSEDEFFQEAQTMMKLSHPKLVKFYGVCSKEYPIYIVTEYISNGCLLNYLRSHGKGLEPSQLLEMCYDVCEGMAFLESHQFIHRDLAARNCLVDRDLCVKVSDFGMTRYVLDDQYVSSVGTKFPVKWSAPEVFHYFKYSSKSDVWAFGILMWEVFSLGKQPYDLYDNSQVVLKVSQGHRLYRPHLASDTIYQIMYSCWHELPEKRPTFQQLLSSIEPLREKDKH
Description: (§4) [* <10 nM: A, <100 nM: B, >100 nM: C]. [Table 7]

[14] = target: T2, Src (Homo sapiens, UniProt P12931); assay: Enzyme activity inhibition (Reaction Biology); type: biochemical
T2 construct: purchased Reaction Biology (RBC)
T2 sequence (P12931 whole entry): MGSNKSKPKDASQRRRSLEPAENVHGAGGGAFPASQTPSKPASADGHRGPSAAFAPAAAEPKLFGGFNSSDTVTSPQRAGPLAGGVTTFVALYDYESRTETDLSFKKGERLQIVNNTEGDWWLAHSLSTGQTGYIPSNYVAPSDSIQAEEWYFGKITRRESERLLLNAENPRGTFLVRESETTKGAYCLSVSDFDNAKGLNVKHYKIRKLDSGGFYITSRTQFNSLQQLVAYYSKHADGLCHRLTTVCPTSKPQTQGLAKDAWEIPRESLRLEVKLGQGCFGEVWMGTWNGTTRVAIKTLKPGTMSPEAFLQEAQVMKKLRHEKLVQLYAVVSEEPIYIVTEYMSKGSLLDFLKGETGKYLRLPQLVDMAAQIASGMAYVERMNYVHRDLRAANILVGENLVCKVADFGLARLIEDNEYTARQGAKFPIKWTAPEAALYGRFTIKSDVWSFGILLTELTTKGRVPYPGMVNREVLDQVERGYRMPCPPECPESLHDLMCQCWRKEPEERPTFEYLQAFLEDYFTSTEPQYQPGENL
Description: as §4

[15] = target: T3, ACK1 (Homo sapiens, UniProt Q07912); assay: Enzyme activity inhibition (Reaction Biology); type: biochemical
T3 construct: purchased Reaction Biology (RBC)
T3 sequence (Q07912 whole entry): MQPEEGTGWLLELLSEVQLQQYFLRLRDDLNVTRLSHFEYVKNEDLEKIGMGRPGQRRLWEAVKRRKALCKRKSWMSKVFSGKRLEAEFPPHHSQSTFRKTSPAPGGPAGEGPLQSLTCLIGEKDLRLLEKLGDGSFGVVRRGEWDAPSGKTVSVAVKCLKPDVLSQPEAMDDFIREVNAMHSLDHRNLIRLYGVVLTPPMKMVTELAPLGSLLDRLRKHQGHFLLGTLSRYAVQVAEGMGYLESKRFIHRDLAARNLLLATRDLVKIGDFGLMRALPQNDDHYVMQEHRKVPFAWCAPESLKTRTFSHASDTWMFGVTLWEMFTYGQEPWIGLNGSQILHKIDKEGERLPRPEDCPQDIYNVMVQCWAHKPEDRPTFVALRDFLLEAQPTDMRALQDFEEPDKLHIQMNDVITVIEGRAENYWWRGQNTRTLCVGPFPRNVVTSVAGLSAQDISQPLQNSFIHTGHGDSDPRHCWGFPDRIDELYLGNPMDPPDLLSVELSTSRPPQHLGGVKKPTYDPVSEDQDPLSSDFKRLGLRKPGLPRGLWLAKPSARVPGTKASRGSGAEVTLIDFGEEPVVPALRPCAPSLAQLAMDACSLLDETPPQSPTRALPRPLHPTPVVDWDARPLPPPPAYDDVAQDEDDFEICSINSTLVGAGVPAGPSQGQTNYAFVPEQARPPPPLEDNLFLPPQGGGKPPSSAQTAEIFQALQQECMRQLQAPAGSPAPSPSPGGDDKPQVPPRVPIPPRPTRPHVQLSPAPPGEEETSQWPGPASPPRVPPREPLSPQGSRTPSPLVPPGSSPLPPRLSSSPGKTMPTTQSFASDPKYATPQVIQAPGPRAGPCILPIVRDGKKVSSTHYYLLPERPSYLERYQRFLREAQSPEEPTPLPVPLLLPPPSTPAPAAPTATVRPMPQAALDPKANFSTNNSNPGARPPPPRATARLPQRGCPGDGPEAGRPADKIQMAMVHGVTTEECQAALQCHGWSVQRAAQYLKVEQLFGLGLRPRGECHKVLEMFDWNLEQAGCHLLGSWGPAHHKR
Description: as §4

[16] = target: CDK4/CYCLIN D2 (Homo sapiens, UniProt P11802); assay: Kinase panel; type: biochemical; details: CDK4/CYCLIN D2, 1 µM; read-out: residual enzyme activity
CDK4/CYCLIN D2, sequence (P11802 whole entry, species assumed): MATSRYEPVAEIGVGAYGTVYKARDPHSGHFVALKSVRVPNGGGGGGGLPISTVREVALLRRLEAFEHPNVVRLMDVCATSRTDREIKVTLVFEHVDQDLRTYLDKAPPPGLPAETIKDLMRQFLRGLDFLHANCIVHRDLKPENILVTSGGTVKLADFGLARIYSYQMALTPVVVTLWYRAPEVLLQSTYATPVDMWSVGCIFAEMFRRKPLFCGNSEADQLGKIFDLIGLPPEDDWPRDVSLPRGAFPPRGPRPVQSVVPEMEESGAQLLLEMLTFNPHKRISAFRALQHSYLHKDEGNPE
CDK4/CYCLIN D2, sequence (P30279 whole entry partner, species assumed): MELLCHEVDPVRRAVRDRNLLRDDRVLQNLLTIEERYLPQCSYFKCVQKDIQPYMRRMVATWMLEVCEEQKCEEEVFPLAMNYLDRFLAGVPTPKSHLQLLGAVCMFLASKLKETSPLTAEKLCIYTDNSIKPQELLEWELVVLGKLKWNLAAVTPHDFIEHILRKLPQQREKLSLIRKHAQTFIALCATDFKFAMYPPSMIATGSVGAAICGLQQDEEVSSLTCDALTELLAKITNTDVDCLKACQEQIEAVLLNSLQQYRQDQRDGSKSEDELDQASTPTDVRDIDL
Method in brief: (§5)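 Each listed kinase was assayed biochemically in the presence of 1 µM compound, and the calculated value is residual enzyme activity. Identification criterion was inhibition reaching 60% or more.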

[17] = target: CDK8/cyclin C (Homo sapiens, UniProt P49336); assay: Kinase panel; type: biochemical; details: read-out: residual enzyme activity
CDK8/cyclin C, sequence (P49336 whole entry, species assumed): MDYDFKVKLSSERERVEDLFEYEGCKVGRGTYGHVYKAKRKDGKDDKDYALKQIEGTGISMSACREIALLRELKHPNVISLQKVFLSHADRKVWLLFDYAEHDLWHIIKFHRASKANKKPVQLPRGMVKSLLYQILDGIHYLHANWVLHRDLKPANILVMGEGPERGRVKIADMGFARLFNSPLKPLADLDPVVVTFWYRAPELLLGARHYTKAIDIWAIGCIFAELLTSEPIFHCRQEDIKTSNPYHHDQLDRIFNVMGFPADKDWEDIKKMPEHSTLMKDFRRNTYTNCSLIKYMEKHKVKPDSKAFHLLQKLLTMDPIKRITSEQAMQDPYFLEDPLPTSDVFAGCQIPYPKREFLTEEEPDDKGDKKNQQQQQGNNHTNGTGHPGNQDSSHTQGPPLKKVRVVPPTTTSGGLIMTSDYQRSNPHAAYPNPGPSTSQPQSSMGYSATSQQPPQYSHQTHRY
CDK8/cyclin C, sequence (P24863 whole entry partner, species assumed): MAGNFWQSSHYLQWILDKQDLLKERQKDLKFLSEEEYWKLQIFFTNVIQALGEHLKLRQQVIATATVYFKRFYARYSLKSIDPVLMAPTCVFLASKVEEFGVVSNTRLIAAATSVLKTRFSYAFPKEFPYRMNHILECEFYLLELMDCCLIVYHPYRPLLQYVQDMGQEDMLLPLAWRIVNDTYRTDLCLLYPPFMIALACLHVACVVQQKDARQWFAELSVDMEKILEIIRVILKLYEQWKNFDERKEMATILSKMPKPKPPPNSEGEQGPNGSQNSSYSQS
Method in brief: as §5

[18] = target: RIPK3 (Homo sapiens, UniProt Q9Y572); assay: Kinase panel; type: biochemical; details: RIPK3, 1 µM; read-out: residual enzyme activity
RIPK3, sequence (Q9Y572 whole entry, species assumed): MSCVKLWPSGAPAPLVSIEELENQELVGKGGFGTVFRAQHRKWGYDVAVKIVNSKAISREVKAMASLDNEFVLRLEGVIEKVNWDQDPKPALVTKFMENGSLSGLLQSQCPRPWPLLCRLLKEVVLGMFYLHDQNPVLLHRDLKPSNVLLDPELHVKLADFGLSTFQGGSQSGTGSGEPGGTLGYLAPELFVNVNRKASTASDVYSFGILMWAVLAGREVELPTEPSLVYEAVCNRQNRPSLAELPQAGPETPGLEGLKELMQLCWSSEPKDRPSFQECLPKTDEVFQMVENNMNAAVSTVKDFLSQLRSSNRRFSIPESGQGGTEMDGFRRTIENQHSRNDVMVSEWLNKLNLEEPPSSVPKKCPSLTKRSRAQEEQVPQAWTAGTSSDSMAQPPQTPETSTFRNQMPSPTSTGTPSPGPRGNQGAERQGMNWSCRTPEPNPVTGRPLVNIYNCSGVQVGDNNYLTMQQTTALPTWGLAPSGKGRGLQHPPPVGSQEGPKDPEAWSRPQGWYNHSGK
Method in brief: as §5

[19] = target: PKMYT1 (Homo sapiens, UniProt Q99640); assay: Kinase panel; type: biochemical; details: PKMYT1, 1 µM; read-out: residual enzyme activity
PKMYT1, sequence (Q99640 whole entry, species assumed): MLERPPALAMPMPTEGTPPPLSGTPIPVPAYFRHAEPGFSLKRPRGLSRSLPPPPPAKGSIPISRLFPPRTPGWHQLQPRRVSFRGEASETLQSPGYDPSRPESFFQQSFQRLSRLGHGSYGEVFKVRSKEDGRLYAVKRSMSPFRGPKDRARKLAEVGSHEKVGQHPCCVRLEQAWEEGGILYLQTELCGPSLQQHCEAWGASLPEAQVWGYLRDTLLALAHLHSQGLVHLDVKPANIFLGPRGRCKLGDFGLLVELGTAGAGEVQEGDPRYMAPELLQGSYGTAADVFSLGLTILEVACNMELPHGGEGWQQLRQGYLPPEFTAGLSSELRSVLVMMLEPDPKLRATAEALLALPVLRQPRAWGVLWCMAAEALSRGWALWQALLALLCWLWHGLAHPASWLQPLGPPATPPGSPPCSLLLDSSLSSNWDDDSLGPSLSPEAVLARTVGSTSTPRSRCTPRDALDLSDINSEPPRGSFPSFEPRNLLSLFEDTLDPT
Method in brief: as §5

[20] = target: CDK19/cyclin C (Homo sapiens, UniProt Q9BWU1); assay: Kinase panel; type: biochemical; details: read-out: residual enzyme activity
CDK19/cyclin C, sequence (Q9BWU1 whole entry, species assumed): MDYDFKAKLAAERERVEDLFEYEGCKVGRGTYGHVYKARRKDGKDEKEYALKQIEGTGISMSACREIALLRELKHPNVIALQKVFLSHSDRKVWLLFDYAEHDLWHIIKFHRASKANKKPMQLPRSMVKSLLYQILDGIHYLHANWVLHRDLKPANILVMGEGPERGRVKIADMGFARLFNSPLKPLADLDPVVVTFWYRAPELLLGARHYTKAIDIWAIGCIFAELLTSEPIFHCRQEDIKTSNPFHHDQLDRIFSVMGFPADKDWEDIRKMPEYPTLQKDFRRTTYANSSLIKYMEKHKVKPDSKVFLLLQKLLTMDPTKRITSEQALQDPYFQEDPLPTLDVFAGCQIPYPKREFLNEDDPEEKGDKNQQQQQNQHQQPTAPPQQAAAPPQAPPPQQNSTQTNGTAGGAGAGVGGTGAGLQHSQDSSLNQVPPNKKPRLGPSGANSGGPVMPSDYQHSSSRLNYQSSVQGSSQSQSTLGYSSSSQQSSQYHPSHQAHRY
CDK19/cyclin C, sequence (P24863 whole entry partner, species assumed): as the sequence (P24863 whole entry partner, species assumed) above
Method in brief: as §5

Compound: Cc1cn(-c2cc(C(=O)Nc3ccc(C)c(N4Cc5cnc(NC6CC6)nc5C5(CC5)C4=O)c3)cc(C(F)(F)F)c2)cn1 [Compound 8, N-(3-(2'-(cyclopropylamino)-7'-oxo-5'H-spiro[cyclopropane-1,8'-pyrido[4,3-d]pyrimidine]-6'(7'H)-yl)-4-methylphenyl)-3-(4-methyl-1H-imidazol-1-yl)-5-(trifluoromethyl)benzamide]
- GI50 [1]: 1000 to 5000 nM
- GI50 [2]: 1000 to 5000 nM
- GI50 [3]: < 1000 nM
- GI50 [4]: > 10 µM
- GI50 [5]: < 1000 nM
- GI50 [6]: 1000 to 5000 nM
- GI50 [7]: < 1000 nM
- GI50 [8]: 1000 to 5000 nM
- GI50 [9]: 1000 to 5000 nM
- GI50 [10]: 1000 to 5000 nM
- GI50 [11]: > 10 µM
- GI50 [12]: 1000 to 5000 nM
- IC50 [13]: < 10 nM
- IC50 [14]: 10 to 100 nM
- IC50 [15]: < 10 nM
- remaining activity at 1 µM [16]: > 40%

Compound: Cc1ccc(Nc2ncc3c(n2)C2(CC2)C(=O)N(c2cc(NC(=O)c4cccc(C(F)(F)F)c4)ccc2C)C3)cn1 [Compound 51, N-(4-methyl-3-(2'-((6-methylpyridin-3-yl)amino)-7'-oxo-5'H-spiro[cyclopropane-1,8'-pyrido[4,3-d]pyrimidine]-6'(7'H)-yl)phenyl)-3-(trifluoromethyl)benzamide]
- GI50 [1]: < 1000 nM
- GI50 [2]: < 1000 nM
- GI50 [3]: < 1000 nM
- GI50 [4]: 1 to 5 µM
- GI50 [5]: < 1000 nM
- GI50 [6]: < 1000 nM
- GI50 [7]: < 1000 nM
- GI50 [8]: < 1000 nM
- GI50 [9]: 1000 to 5000 nM
- GI50 [10]: < 1000 nM
- GI50 [11]: 1 to 5 µM
- GI50 [12]: 1000 to 5000 nM
- IC50 [13]: < 10 nM
- IC50 [14]: < 10 nM
- IC50 [15]: 10 to 100 nM
- remaining activity at 1 µM [17]: > 40%
- remaining activity at 1 µM [18]: ≤ 40%
- remaining activity at 1 µM [19]: > 40%
- remaining activity at 1 µM [20]: > 40%
